Columns and labels:
[1] = target: human GABAA α1β3γ2 receptor (Homo sapiens (Human), UniProt P14867+P18507); test: Radioligand binding assay for γ2-containing GABAA subtypes, [3H]Flumazenil competition (α1β3γ2); conditions: for γ2/γ1 Selectivity Ratio: Ki α1β3γ2 (nM)/Ki α2β2γ1 (nM); for LogSel: Log[Ki α1β3γ2 (nM)/Ki α2β2γ1 (nM)]
[2] = target: α2β2γ1 GABAA receptor subtype (Homo sapiens (Human), UniProt P47869+Q8N1C3); test: Two-electrode voltage clamp electrophysiology in Xenopus oocytes expressing GABAA receptors (modulation of GABA EC20 current); assay type: cell-based; conditions: for Efficacy (GABA)%: % modulation of GABA EC20 = 100*(Fold increase-1), α2β2γ1 oocytes, compound at approx. 30-fold Ki; for Fold increase h-GABA-A α2β2γ1 oocyte @ 30-fold Ki: Xenopus oocytes expressing α2β2γ1, compound at approx. 30-fold its Ki α2β2γ1, GABA EC20 current
In short: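 Each concentration was tested on ≥3 oocytes held at −80 mV at room temperature, recorded 3-5 days post-injection. A control and a test response to EC20 GABA (1.5 min each) were superimposed and their point-by-point ratio taken. Peak ratio reported as % modulation of GABA EC20 = 100×(fold increase−1).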

[3] = target: human GABAA α2β2γ1 receptor (Homo sapiens (Human), UniProt P47869+Q8N1C3); test: Radioligand binding assay for γ1-containing GABAA subtypes, [3H]RO7239181 competition (α2β2γ1)
[4] = target: human GABAA α5β2γ1 receptor (Homo sapiens (Human), UniProt P31644+Q8N1C3); test: Radioligand binding assay for γ1-containing GABAA subtypes, [3H]RO7239181 competition (α5β2γ1)
[5] = target: human GABAA α1β2γ1 receptor (Homo sapiens (Human), UniProt P14867+Q8N1C3); test: Radioligand binding assay for γ1-containing GABAA subtypes, [3H]RO7239181 competition (α1β2γ1)
Protocol: The affinity of compounds at GABAA γ1 subunit-containing receptors was measured by competition for [^3H]RO7239181 (67.3 Ci/mmol; Roche) binding to membranes from HEK293F cells (ThermoFisher R79007) expressing human (transiently transfected) receptors of composition α5β2γ1, α2β2γ1, α1β2γ1.
Harvested pellets from HEK293F cells expressing the different GABAA receptor subtypes were resuspended in Mannitol Buffer pH 7.2-7.4 (Mannitol 0.29 M, Triethylamine 10 mM, Acetic acid 10 mM, EDTA 1 mM plus protease inhibitors (20 tablets Complete, Roche Diagnostics Cat. No. 05 056 489 001 per liter)), washed two times and then resuspended at 1:10 to 1:15 dilution in the same buffer. Cell disruption was performed by stirring the suspension in a Parr vessel #4637 at 435 psi for 15 minutes, and then the suspensions were centrifuged at 1000×g for 15 minutes at 4° C. (Beckman Avanti J-HC; rotor JS-4.2). The supernatant (S1) was transferred in a 2 l Schott flask and the pellet (P1) was resuspended with Mannitol Buffer up to 175 ml. The resuspended pellet was transferred into a 250 ml Corning centrifugal beaker and centrifuged at 1500×g for 10 minutes at 4° C. (Beckman Avanti J-HC; rotor JS-4.2). The supernatant (S1) was then transferred in the 2 l Schott flask and the pellet was discarded. The supernatants (S1) were centrifuged in 500 ml Beckman polypropylene centrifugal beaker at 15′000×g for 30 minutes at 4° C. (Beckman Avanti J-20 XP; rotor JLA-10.500). The pellet (P2) was resuspended with Mannitol Buffer 1:1 and frozen at −80° C. The supernatant (S2) was centrifuged in 100 ml Beckman polypropylene centrifugal tubes at 48000×g for 50 minutes at 4° C. (Beckman Avanti J-20 XP; rotor JA-18). The supernatant (S3) was discarded and the pellet (P3) was resuspended with 1:1 Mannitol Buffer. The P2 and P3 protein concentration was determined with the BIORAD Standard assay method with bovine serum albumin as standard and measured on the NANO-Drop 1000. The membrane suspension was aliquots (500 μl per tube) and stored at −80° C. until required.
Membrane homogenates were resuspended and polytronised (Polytron PT1200E Kinematica AG) in Potassium Phosphate 10 mM, KCl 100 mM binding buffer at pH 7.4 to a final assay concentration determined with a previous experiment.
Assays were incubated to equilibrium for 1 hour at 4° C. and then, membranes were filtered onto unifilter (96-well white microplate with bonded GF/C filters preincubated 20-50 minutes in 0.3% Polyethylenimine) with a Filtermate 196 harvester (Packard BioScience) and washed 4 times with cold Potassium Phosphate 10 mM pH 7.4, KCl 100 mM binding buffer. After anhydrousing, filter-retained radioactivity was detected by liquid scintillation counting. Ki values were calculated using Excel-Fit (Microsoft) and are the means of two determinations.

[6] = Ki h-GABAA α2β2γ1, [3H]RO7239181 competition binding, human GABAA α2β2γ1
[7] = Ki h-GABAA α2β2γ1, displacement of [3H]RO7239181, membranes of HEK293F cells expressing human receptors, means of two determinations

| Structure (SMILES) | Ki [1] [µM] | γ2/γ1 Selectivity Ratio [1] | LogSel [1] | Efficacy (GABA)% [2] [%] | Fold increase h-GABA-A α2β2γ1 oocyte @ 30-fold Ki [2] | Ki [3, 6] [µM] | Ki [3, 7] [µM] | Ki [4] [µM] | Ki [5] [µM] |
| --- | --- | --- | --- | --- | --- | --- | --- | --- | --- |
| C[C@@H]1N=C(c2c(F)cccc2F)c2c(ccc(C(F)(F)F)c2Cl)-n2nc(C(=O)NCCO)nc21 [Example 107, (4S)-7-chloro-6-(2,6-difluorophenyl)-N-(2-hydroxyethyl)-4-methyl-8-(trifluoromethyl)-4H-[1,2,4]triazolo[1,5-a][1,4]benzodiazepine-2-carboxamide] | 3.7 | 319.1 | 2.50 | 103 | 2.03 | 0.014 | 0.0116 | 0.0025 | 0.0651 |
| C[C@H](O)CNC(=O)c1nc2n(n1)-c1ccc(C(F)(F)F)c(Cl)c1C(c1c(F)cccc1F)=N[C@H]2C [Example 109, (4S)-7-chloro-6-(2,6-difluorophenyl)-N-[(2S)-2-hydroxypropyl]-4-methyl-8-(trifluoromethyl)-4H-[1,2,4]triazolo[1,5-a][1,4]benzodiazepine-2-carboxamide] | 3.12 | 258.7 | 2.41 | 126 | 2.26 | 0.0121 | 0.0121 | 0.00307 | 0.0408 |
| C[C@@H]1N=C(c2c(F)cccc2F)c2c(ccc(C(F)(F)F)c2Cl)-n2nc(C(=O)N3CCS(=O)(=O)CC3)nc21 [Example 114, [(4S)-7-chloro-6-(2,6-difluorophenyl)-4-methyl-8-(trifluoromethyl)-4H-[1,2,4]triazolo[1,5-a][1,4]benzodiazepin-2-yl]-(1,1-dioxo-1,4-thiazinan-4-yl)methanone] | 3.09 | 325.5 | 2.51 | 88 | 1.88 | 0.0095 | 0.0095 | 0.00373 | 0.0232 |
| C[C@@H]1N=C(c2c(F)cccc2F)c2c(ccc(C(F)(F)F)c2Cl)-n2nc(C(=O)NN(C)C)nc21 [Example 117, (4S)-7-chloro-6-(2,6-difluorophenyl)-N′,N′,4-trimethyl-8-(trifluromethyl)-4H-[1,2,4]triazolo[1,5-a][1,4]benzodiazepine-2-carbohydrazide] | 5.51 | 276.4 | 2.44 | 92 | 1.92 | 0.02 | 0.02 | 0.00314 | 0.0992 |
| C[C@@H]1N=C(c2c(F)cccc2F)c2c(ccc(C(F)(F)F)c2Cl)-n2nc(N3CCOC3=O)nc21 [Example 121, 3-[(4S)-7-chloro-6-(2,6-difluorophenyl)-4-methyl-8-(trifluoromethyl)-4H-[1,2,4]triazolo[1,5-a][1,4]benzodiazepin-2-yl]oxazolidin-2-one] | 1.21 | 218.2 | 2.34 | 52 | 1.52 | 0.0055 | 0.0055 | 0.00143 | 0.0391 |
| CNC(=O)Nc1nc2n(n1)-c1ccc(C(F)(F)F)c(Cl)c1C(c1c(F)cccc1F)=N[C@H]2C [Example 129, 1-[(4S)-7-chloro-6-(2,6-difluorophenyl)-4-methyl-8-(trifluoromethyl)-4H-[1,2,4]triazolo[1,5-a][1,4]benzodiazepin-2-yl]-3-methyl-urea] | 3.35 | 558.0 | 2.75 | 36 | 1.36 | 0.006 | 0.006 | 0.00158 | 0.0499 |
| CCOC1CN(C(=O)c2nc3n(n2)-c2ccc(C(F)(F)F)c(Cl)c2C(c2ncccc2F)=N[C@H]3C)C1 [Example 137, [(4S)-7-chloro-6-(3-fluoro-2-pyridyl)-4-methyl-8-(trifluoromethyl)-4H-[1,2,4]triazolo[1,5-a][1,4]benzodiazepin-2-yl]-(3-ethoxyazetidin-1-yl)methanone] | 10.5 | 246.0 | 2.39 | 129 | 2.29 | 0.0426 | 0.0426 | 0.00658 | 0.13 |
| Cc1nnc(-c2nc3n(n2)-c2ccc(C(F)(F)F)c(Cl)c2C(c2ncccc2F)=N[C@H]3C)o1 [Example 144, 2-[(4S)-7-chloro-6-(3-fluoro-2-pyridyl)-4-methyl-8-(trifluoromethyl)-4H-[1,2,4]triazolo[1,5-a][1,4]benzodiazepin-2-yl]-5-methyl-1,3,4-oxadiazole] | 13.5 | 183.6 | 2.26 | 169 | 2.69 | 0.0735 | 0.0735 | 0.0083 | 0.179 |
| C[C@@H]1N=C(c2ncccc2F)c2c(ccc(C(F)(F)F)c2Cl)-n2cc(C(=O)NCC(C)(C)O)nc21 [Example 159, (4S)-7-chloro-6-(3-fluoro-2-pyridyl)-N-(2-hydroxy-2-methyl-propyl)-4-methyl-8-(trifluoromethyl)-4H-imidazo[1,2-a][1,4]benzodiazepine-2-carboxamide] | 8.32 | 195.6 | 2.29 | 217 | 3.17 | 0.043 | 0.0426 | 0.0114 | 0.0704 |

From US12365687B2 (Hoffmann-La Roche Inc., priority 2021, dated 2025)
